Laboratory results from US8952024B2, “Herbicidal pyrimidone derivatives” (E I du Pont de Nemours and Company, priority 2009, dated 2015).

How the values were obtained:
Format in all cases: in vivo
[1] = test system: deadnettle (henbit deadnettle, Lamium amplexicaule); experiment: Test C plant response; settings: Postemergence, scale 0 to 100
Method in brief: (§1)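 Efficacy is a visual percent-control score (0 none, 100 complete), judged against controls 14 days after application. Compounds go on in a non-phytotoxic solvent carrier with surfactant. A dash marks a missing result.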

[2] = test system: kochia (Kochia scoparia); experiment: Test C plant response; settings: Postemergence, scale 0 to 100
Method in brief: as §1

[3] = test system: oilseed rape (Brassica napus); experiment: Test C plant response; settings: Postemergence, scale 0 to 100
Method in brief: as §1

[4] = test system: wild radish (Raphanus raphanistrum); experiment: Test C plant response; settings: Postemergence, scale 0 to 100
Method in brief: as §1

[5] = test system: winter wheat (Triticum aestivum); experiment: Test C plant response; settings: Postemergence, scale 0 to 100
Method in brief: as §1

[6] = test system: canarygrass (Phalaris minor); experiment: Test C plant response; settings: Preemergence, scale 0 to 100
[7] = test system: chickweed (common chickweed, Stellaria media); experiment: Test C plant response; settings: Preemergence, scale 0 to 100
[8] = test system: galium (catchweed bedstraw, Galium aparine); experiment: Test C plant response; settings: Preemergence, scale 0 to 100
[9] = test system: bromegrass (downy bromegrass, Bromus tectorum); experiment: Test C plant response; settings: Preemergence, scale 0 to 100
[10] = test system: field violet (Viola arvensis); experiment: Test C plant response; settings: Preemergence, scale 0 to 100
[11] = test system: wild mustard (Sinapis arvensis); experiment: Test C plant response; settings: Preemergence, scale 0 to 100
[12] = test system: windgrass (Apera spica-venti); experiment: Test C plant response; settings: Preemergence, scale 0 to 100
[13] = test system: barnyardgrass (Echinochloa crus-galli); experiment: Test E flooded paddy rice and weeds; settings: applied to paddy water, 21 days
Source text: (§2) Three plastic pots (ca. 16-cm diameter) for each application were partially filled with sterilized Tama silt loam soil comprising a 35:50:15 ratio of sand, silt and clay and 2.6% organic matter. Separate plantings for each of the three pots were as follows. Seeds from the U.S. of ducksalad (Heteranthera limosa), sedge (smallflower umbrella sedge, Cyperus difformis), ricefield bulrush (Scirpus mucronatus) and redstem (purple redstem, Ammannia coccinea), were planted into one 16-cm pot for each rate. Seeds from the U.S. of flatsedge (rice flatsedge, Cyperus iria), sprangletop (bearded (i.e. Brdd.) sprangletop, Leptochloa fascicularis), one stand of 9 or 10 water seeded rice seedlings (Oryza sativa cv. ‘Japonica—M202’), and two stands of 3 or 4 transplanted rice seedlings (Oryza sativa cv. ‘Japonica—M202’) were planted into one 16-cm pot for each rate. Seeds from the U.S. of barnyardgrass (Echinochloa crus-galli), late watergrass (Echinochloa oryzicola), early watergrass (Echinochloa oryzoides) and junglerice (Echinochloa colona) were planted into one 16-cm pot for each rate. Plantings were sequential so that crop and weed species were at the 2.0 to 2.5-leaf stage at time of treatment.
(§3) Potted plants were grown in a greenhouse with day/night temperature settings of 30/27° C., and supplemental balanced lighting was provided to maintain a 16-hour photoperiod. Test pots were maintained in the greenhouse until test completion.
(§4) At time of treatment, test pots were flooded to 3 cm above the soil surface, treated by application of test compounds directly to the paddy water, and then maintained at that water depth for the duration of the test. Effects of treatments on rice and weeds were visually evaluated by comparison to untreated controls after 21 days. Plant response ratings, summarized in Table E, are based on a scale of 0 to 100 where 0 is no effect and 100 is complete control. A dash (-) response means no test result.

[14] = test system: ducksalad (Heteranthera limosa); experiment: Test E flooded paddy rice and weeds; settings: applied to paddy water, 21 days, scale 0 to 100
Source text: as §2, §3, §4

[15] = test system: early watergrass (Echinochloa oryzoides); experiment: Test E flooded paddy rice and weeds; settings: applied to paddy water, 21 days, scale 0 to 100
Source text: as §2, §3, §4

[16] = test system: flatsedge (rice flatsedge, Cyperus iria); experiment: Test E flooded paddy rice and weeds; settings: applied to paddy water, 21 days, scale 0 to 100
Source text: as §2, §3, §4

[17] = test system: sedge (smallflower umbrella sedge, Cyperus difformis); experiment: Test E flooded paddy rice and weeds; settings: applied to paddy water, 21 days, scale 0 to 100
Source text: as §2, §3, §4

## O=C1CCCC(O)=C1C(=O)c1cnc(-c2ccccc2)n(-c2ccccc2)c1=O [Compound 2, 5-[(2-hydroxy-6-oxo-1-cyclohexen-1-yl)carbonyl]-2,3-diphenyl-4(3H)-pyrimidinone]
[1]; 16 g ai/ha
  Plant response rating: Deadnettle: 95
[1]; 31 g ai/ha
  Plant response rating: Deadnettle: 95
[1]; 62 g ai/ha
  Plant response rating: Deadnettle: 100
[1]; 125 g ai/ha
  Plant response rating: Deadnettle: 100
[2]; 16 g ai/ha
  Plant response rating: Kochia: 65
[2]; 31 g ai/ha
  Plant response rating: Kochia: 70
[2]; 62 g ai/ha
  Plant response rating: Kochia: 75
[2]; 125 g ai/ha
  Plant response rating: Kochia: 98
[3]; 16 g ai/ha
  Plant response rating: Oilseed Rape: 60
[3]; 31 g ai/ha
  Plant response rating: Oilseed Rape: 60
[3]; 62 g ai/ha
  Plant response rating: Oilseed Rape: 70
[3]; 125 g ai/ha
  Plant response rating: Oilseed Rape: 90
[4]; 16 g ai/ha
  Plant response rating: Radish, Wild: 65
[4]; 31 g ai/ha
  Plant response rating: Radish, Wild: 80
[4]; 62 g ai/ha
  Plant response rating: Radish, Wild: 95
[4]; 125 g ai/ha
  Plant response rating: Radish, Wild: 95
[5]; 16 g ai/ha
  Plant response rating: Wheat, Winter: 0
[5]; 31 g ai/ha
  Plant response rating: Wheat, Winter: 0
[5]; 62 g ai/ha
  Plant response rating: Wheat, Winter: 0
[5]; 125 g ai/ha
  Plant response rating: Wheat, Winter: 30
[6]; 62 g ai/ha
  Plant response rating: Canarygrass: 0
[6]; 125 g ai/ha
  Plant response rating: Canarygrass: 10
[6]; 16 g ai/ha
  Plant response rating: Canarygrass: 0
[6]; 31 g ai/ha
  Plant response rating: Canarygrass: 0
[7]; 62 g ai/ha
  Plant response rating: Chickweed: 98
[7]; 125 g ai/ha
  Plant response rating: Chickweed: 98
[7]; 16 g ai/ha
  Plant response rating: Chickweed: 75
[7]; 31 g ai/ha
  Plant response rating: Chickweed: 98
[8]; 62 g ai/ha
  Plant response rating: Galium: 0
[8]; 125 g ai/ha
  Plant response rating: Galium: 50
[9]; 62 g ai/ha
  Plant response rating: Bromegrass, Downy: 0
[9]; 125 g ai/ha
  Plant response rating: Bromegrass, Downy: 0
[9]; 16 g ai/ha
  Plant response rating: Bromegrass, Downy: 0
[9]; 31 g ai/ha
  Plant response rating: Bromegrass, Downy: 0
[10]; 62 g ai/ha
  Plant response rating: Field Violet: 0
[10]; 125 g ai/ha
  Plant response rating: Field Violet: 0
[10]; 16 g ai/ha
  Plant response rating: Field Violet: 0
[10]; 31 g ai/ha
  Plant response rating: Field Violet: 0
[11]; 62 g ai/ha
  Plant response rating: Mustard, Wild: 5
[11]; 125 g ai/ha
  Plant response rating: Mustard, Wild: 35
[11]; 16 g ai/ha
  Plant response rating: Mustard, Wild: 0
[11]; 31 g ai/ha
  Plant response rating: Mustard, Wild: 0
[12]; 62 g ai/ha
  Plant response rating: Windgrass: 25
[12]; 125 g ai/ha
  Plant response rating: Windgrass: 25
[12]; 16 g ai/ha
  Plant response rating: Windgrass: 0
[12]; 31 g ai/ha
  Plant response rating: Windgrass: 15

## COc1cccc(-n2c(-c3ccccc3)ncc(C(=O)C3=C(O)CCCC3=O)c2=O)c1 [Compound 19]
[13]; 64 g ai/ha, scale 0 to 100
  Plant response rating, Barnyardgrass, Flood: 60
[13]; 125 g ai/ha, scale 0 to 100
  Plant response rating, Barnyardgrass, Flood: 60
[13]; 250 g ai/ha, scale 0 to 100
  Plant response rating, Barnyardgrass, Flood: 70
[13]; 500 g ai/ha, scale 0 to 100 (0 no effect, 100 complete control)
  Plant response rating, Barnyardgrass, Flood: 85
[14]; 64 g ai/ha
  Plant response rating, Ducksalad, Flood: 85
[14]; 125 g ai/ha
  Plant response rating, Ducksalad, Flood: 95
[14]; 250 g ai/ha
  Plant response rating, Ducksalad, Flood: 100
[14]; 500 g ai/ha
  Plant response rating, Ducksalad, Flood: 100
[15]; 64 g ai/ha
  Plant response rating, Watergrass, Early, Flood: 20
[15]; 125 g ai/ha
  Plant response rating, Watergrass, Early, Flood: 45
[15]; 250 g ai/ha
  Plant response rating, Watergrass, Early, Flood: 65
[15]; 500 g ai/ha
  Plant response rating, Watergrass, Early, Flood: 85
[16]; 64 g ai/ha
  Plant response rating, Flatsedge, Rice, Flood: 40
[16]; 125 g ai/ha
  Plant response rating, Flatsedge, Rice, Flood: 40
[16]; 250 g ai/ha
  Plant response rating, Flatsedge, Rice, Flood: 95
[16]; 500 g ai/ha
  Plant response rating, Flatsedge, Rice, Flood: 100
[17]; 64 g ai/ha
  Plant response rating, Sedge, Umbrella, Flood: 90
[17]; 125 g ai/ha
  Plant response rating, Sedge, Umbrella, Flood: 100
[17]; 250 g ai/ha
  Plant response rating, Sedge, Umbrella, Flood: 100
[17]; 500 g ai/ha
  Plant response rating, Sedge, Umbrella, Flood: 100
